Laboratory results taken from patent publication US10493126B2, “Combination therapy for ameliorating adverse side effects caused by chemotherapy” (YEASTERN BIOTECH CO., LTD, priority 2014, dated 2019).
Several values for one entry are separate records, joined by “and”; a condition that tells them apart may be missing. Identical values can stand only once.

Tests used:
human lymphocytes = details: 3H-thymidine, compared to PHA; cited from earlier work
BALB/cByJNarl mice [1] = experiment: Micro CT of tibia, trabecular bone micro-architecture, Docetaxel mice model; type: in vivo; details: for porosity of knee, distal femur and proximal tibia samples, in words: FIG. 3B/3C, versus the mice group injected with Docetaxel alone
From the text: (§1) Male BALB/cByJNarl mice (6-8 weeks old) were purchased from National Laboratory Animal Center (NLAC) in Taiwan and randomly divided into four groups, with five mice in Groups Docetaxel+PBS, Docetaxel+FIP-fve and Docetaxel+FIP-gts each and four in Control group. The mice were housed under pathogen-free conditions with a 12-hour light/12-hour dark schedule, and fed an autoclaved diet with ad libitum access to standard rodent chow (Laboratory Rodent Diet 5001, LabDiet, St. Louis, Mo., USA). Three days before the administration of Docetaxel (namely, Day-3), the mice in the Docetaxel+PBS Group started to be fed phosphate-buffered saline (PBS) at 100 μL/animal/day, and the daily feeding of PBS continued throughout the experiment. The mice were injected intravenously in the tail vein with Taxotere® (Aventis Pharma Ltd., Dagenham, UK) at a dose of 30 mg/kg body weight on Days 1, 8 and 15. The Docetaxel+FIP-fve and Docetaxel+FIP-gts Groups were administered Taxotere® at the same dose on the same days as described above. Additionally, the two treatment groups daily received 100 μL PBS added with either 200 μg FIP-fve or 400 μg FIP-gts throughout the experiment starting from Day-3 until the end of the experiment (Day 18). The FIP-gts protein used in this and other Examples disclosed herein was produced according to the method disclosed in WO2005040375A1. The FIP-fve protein used herein was purified from F. velutipes by the method disclosed in Ko J. L., Eur. J. Biochem. 1995; 228:244-249. The mice of the Control Group were given with PBS alone at 100 μL/animal/day without being injected with anti-cancer agent. Blood was sampled from the orbital sinus of the mice on days 4, 11 and 18 for subsequent analysis. The animals were sacrificed by CO2 asphyxiation on day 18. The protocol of the experiment is illustrated in FIG. 1.
Tibiae were separated from right hind limbs of the mice and defleshed. Afterwards, individual tibiae were placed into 15 mL Falcons conical centrifuge tubes (Becton, Dickinson and Company, Franklin Lakes, N.J., USA) and covered with 70% ethanol. The tibia samples were sent to the Taiwan Mouse Clinic, funded by the National Research Program for Biopharmaceuticals (NRPB) of the National Science Council (NSC) in Taiwan, where the samples were scanned by applying three-dimensional micro-computed tomography (micro CT) in a high-resolution low-dose X-ray scanner (SkyScan 1076, Aartselaar, Belgium) and assessed for trabecular bone micro-architecture. For histological analysis, some tibia samples were demineralized in 10% EDTA for two weeks, dehydrated in graded ethanol solutions and embedded in paraffin wax using a Leica ASP300S tissue processor (Leica Microsystems Nussloch GmbH). Deparaffinized sections were stained with hematoxylin and eosin (H&E staining) and then observed under microscope.

BALB/cByJNarl mice [2] = experiment: Complete blood count in Docetaxel mice model; type: in vivo
From the text: as §1

[3] = tested on: human patients with stage III or IV lung cancer; experiment: Clinical study: FIP-gts tablets with Taxotere and cisplatin/carboplatin; type: in vivo; parameters: key to ECOG: 0: Asymptomatic (Fully active, able to carry on all pre-disease activities without restriction); 1: Symptomatic but completely ambulatory (Restricted in physically strenuous activity but ambulatory and able to carry out work of a light or sedentary nature. For example, light housework, office work); 2: Symptomatic, <50% in bed during the day (Ambulatory and capable of all self care but unable to carry out any work activities. Up and about more than 50% of waking hours); 3: Symptomatic, >50% in bed, but not bedbound (Capable of only limited self-care, confined to bed or chair 50% or more of waking hours); 4: Bedbound (Completely disabled. Cannot carry on any self-care. Totally confined to bed or chair); 5: Death; details: columns = course days; for Hb: in g/dL (unit assumed); for Cr.: in mg/dL (unit assumed)
Method: The inventors further conducted a clinical study on diminished quality of life (QOL) and cancer-related fatigue (CRF) caused by chemotherapy. The QOL and CRF of selected human patients were evaluated by the Eastern Cooperative Oncology Group (ECOG) Performance Status Scale from 0 to 5 (Oken M. M., et al., Am. J. Clin. Oncol.; 1982, 5(6): 649-55), where each grade represents:
Five human patients with stage III or IV lung cancer were enrolled in this study. During the study, each patient was administered Taxotere® at either a low dose of 20-30 mg/m^2 or a high dose of 60-69 mg/m^2 in conjunction with cisplatin/carboplatin on the designated days as prescribed by the physician, and received daily two tablets of FIP-gts (3 mg/tablet). The patients were asked to come back to the hospital on the designated days for follow up at the clinic and collection of blood samples. The patients were assessed for quality of life and fatigue according to the ECOG performance status system described above. The medical records of the five patients, as well as the administration regimens for the patients, were illustrated in Tables III.A-III.E below.

BALB/cByJNarl mice [4] = experiment: Structural integrity of jejunal villus, H&E histology, Docetaxel mice model; type: in vivo; details: mice jejunum, FIG. 2A/2B
From the text: (§2) Male BALB/cByJNarl mice (6-8 weeks old) were purchased from National Laboratory Animal Center (NLAC) in Taiwan and randomly divided into four groups, with five mice in Groups Docetaxel+PBS, Docetaxel+FIP-fve and Docetaxel+FIP-gts each and four in Control group. The mice were housed under pathogen-free conditions with a 12-hour light/12-hour dark schedule, and fed an autoclaved diet with ad libitum access to standard rodent chow (Laboratory Rodent Diet 5001, LabDiet, St. Louis, Mo., USA). Three days before the administration of Docetaxel (namely, Day-3), the mice in the Docetaxel+PBS Group started to be fed phosphate-buffered saline (PBS) at 100 μL/animal/day, and the daily feeding of PBS continued throughout the experiment. The mice were injected intravenously in the tail vein with Taxotere® (Aventis Pharma Ltd., Dagenham, UK) at a dose of 30 mg/kg body weight on Days 1, 8 and 15. The Docetaxel+FIP-fve and Docetaxel+FIP-gts Groups were administered Taxotere® at the same dose on the same days as described above. […]
Intestinal samples from the jejunum of the sacrificed mice were fixed in 10% formalin and embedded in paraffin wax. […] The histological images of villi appeared in the intestinal samples are shown in FIG. 2A, and the lengths of villi measured by an NIS-Elements D 3.2 image analysis system (Nikon, Japan) were shown in FIG. 2B.

BALB/cByJNarl mice [5] = experiment: Bone marrow adipogenesis in tibia, H&E histology, Docetaxel mice model; type: in vivo; details: FIG. 4A/4B, compared to the Control
From the text: as §2, with “15.” for “15. The Docetaxel+FIP-fve and Docetaxel+FIP-gts Groups were administered Taxotere® at the same dose on the same days as described above.”
Tibiae were separated from right hind limbs of the mice and defleshed. […] The tibia samples were sent to the Taiwan Mouse Clinic, funded by the National Research Program for Biopharmaceuticals (NRPB) of the National Science Council (NSC) in Taiwan, where the samples were scanned by applying three-dimensional micro-computed tomography (micro CT) in a high-resolution low-dose X-ray scanner (SkyScan 1076, Aartselaar, Belgium) and assessed for trabecular bone micro-architecture. […]

[6] = Patient Case 3, Taxotere + cisplatin + daily FIP-gts, chemotherapy course 1, April
[7] = Patient Case 3, Taxotere + cisplatin + daily FIP-gts, chemotherapy course 2, May 10
[8] = Patient Case 3, Taxotere + cisplatin + daily FIP-gts, chemotherapy course 3, May
[9] = Patient Case 4, low dose Taxotere + cisplatin/carboplatin + daily FIP-gts
[10] = Patient Case 4, low dose Taxotere + cisplatin/carboplatin + daily FIP-gts, in U/L (unit assumed)
[11] = mice tibia, micro CT, Day 18, Docetaxel 30 mg/kg i.v., FIP-fve 200 μg or FIP-gts 400 μg daily
[12] = Docetaxel 30 mg/kg i.v. Days 1, 8, 15, daily FIP-fve 200 μg or FIP-gts 400 μg in 100 μL PBS from Day -3, Day 18

With “FIP-gts: fungal immunomodulatory protein of Ganoderma tsugae, SEQ ID NO: 1, produced according to WO2005040375A1; 3 mg tablets in the clinical study” as the molecule, how does the “concentration sufficient to reach the maximum proliferation of human lymphocytes” value (human lymphocytes) read?
Its value is 5 µg/mL.

What about the “porosity of knee, distal femur and proximal tibia samples, in words” value (BALB/cByJNarl mice [1]; micro CT) of the same molecule?
Its value is “considerably less porous”.

And the “WBC level, in words” value (BALB/cByJNarl mice [2]; co-treatment with Docetaxel)?
Its value is “remarkably restored the WBC level to its control value”.

And the ECOG ([3]; Patient Case 1, Taxotere + cisplatin/carboplatin + daily FIP-gts)?
The ECOG was 1.

What about the ECOG ([3]; Patient Case 2, Taxotere + cisplatin/carboplatin + daily FIP-gts) of the same molecule?
The ECOG was 1.

And the ECOG ([3]; Patient Case 3, Taxotere + cisplatin + daily FIP-gts)?
Its ECOG is 0.

And the AST ([3]; Patient Case 3, Taxotere + cisplatin + daily FIP-gts, in U/L (unit assumed), chemotherapy course 1, April)?
Its AST is 14.

What about the AST ([3]; Patient Case 3, Taxotere + cisplatin + daily FIP-gts, in U/L (unit assumed), chemotherapy course 2, May 10) of the same molecule?
The AST was 13.

And the AST ([3]; Patient Case 3, Taxotere + cisplatin + daily FIP-gts, in U/L (unit assumed), chemotherapy course 3, May)?
Its AST is 15.

What about the Hb [3, 6] of the same molecule?
Its Hb is 14.9.

What about the Hb [3, 7] of the same molecule?
The Hb was 13.9.

What about the Hb [3, 8] of the same molecule?
Its Hb is 12.

What about the Cr. [3, 6] of the same molecule?
Its Cr. is 1.09.

And the Cr. [3, 7]?
Its Cr. is 0.94.

What about the Cr. [3, 8] of the same molecule?
Its Cr. is 0.86.

What about the ECOG [3, 9] of the same molecule?
Its ECOG is 1.

What about the ALT [3, 10] of the same molecule?
Its ALT is 10 and 9.

What about the AST [3, 10] of the same molecule?
The AST was 18 and 13 and 15.

And the Hb [3, 9]?
The Hb was 11.2 and 10 and 8.6 and 9.5 and 9.6 and 8.9.

What about the Cr. [3, 9] of the same molecule?
Its Cr. is 0.8 and 0.89 and 1.15.

And the ECOG ([3]; Patient Case 5, low dose Taxotere + cisplatin + daily FIP-gts)?
Its ECOG is 0.

For `CC(=O)O[C@@]12CO[C@@H]1C[C@H](O)[C@@]1(C)C(=O)[C@H](O)C3=C(C)[C@@H](OC(=O)[C@H](O)[C@@H](NC(=O)OC(C)(C)C)c4ccccc4)C[C@@](O)([C@@H](OC(=O)c4ccccc4)[C@H]21)C3(C)C` [Docetaxel, (2R,3S)-N-carboxy-3-phenylisoserine, N-tert-butyl ester, 13-ester with 5, 20-epoxy-1,2,4,7, 10, 13-hexahydroxytax-11-en-9-one 4-acetate 2-benzoate, trihydrate], which “structural integrity of villi, in words” value (BALB/cByJNarl mice [4]) is on record?
Its value is “severely damaged and blunted”.

And the “adipogenesis in tibia bone marrow, in words” value (BALB/cByJNarl mice [5])?
Its value is “increase in marrow adipose tissue”.

And the “Bone surface density BS/TV” value (BALB/cByJNarl mice [1]; [11])?
Its value is 3.852 1/U.

What about the “Percent bone volume BV/TV” value (BALB/cByJNarl mice [1]; [11]) of the same molecule?
The value was 5.634%.

What about the “Structure model index SMI” value (BALB/cByJNarl mice [1]; [11]) of the same molecule?
The value was 2.1757.

What about the “Trabecular number Tb.N” value (BALB/cByJNarl mice [1]; [11]) of the same molecule?
Its value is 0.8566 1/U.

What about the “Trabecular separation Tb.Sp” value (BALB/cByJNarl mice [1]; [11]) of the same molecule?
The value was 0.5623 U.

What about the “Trabecular thickness Tb.Th” value (BALB/cByJNarl mice [1]; [11]) of the same molecule?
The value was 0.06577 U.

What about the “structural integrity of the tibia, in words” value (BALB/cByJNarl mice [1]; micro CT, FIG. 3A, compared to the Control Group) of the same molecule?
The value was “much more osteo-porous than the Control”.

And the “Docetaxel-induced osteoporosis, in words” value (BALB/cByJNarl mice [1]; tibia samples, from trabecular number, percent bone volume, trabecular separation)?
Its value is “induction of osteoporosis”.

What about the HCT (BALB/cByJNarl mice [2]; [12]) of the same molecule?
The HCT was 39.94 ± 1.19%.

What about the HGB (BALB/cByJNarl mice [2]; [12]) of the same molecule?
Its HGB is 11.77 ± 0.31 g/dL.

And the MCH (BALB/cByJNarl mice [2]; [12])?
The MCH was 15.00 ± 0.16 pg.

What about the MCHC (BALB/cByJNarl mice [2]; [12]) of the same molecule?
Its MCHC is 29.48 ± 0.05 g/dL.

And the MCV (BALB/cByJNarl mice [2]; [12])?
The MCV was 50.82 ± 0.49 fL.

What about the MPV (BALB/cByJNarl mice [2]; [12]) of the same molecule?
The MPV was 6.71 ± 0.17 fL.

What about the PLT (BALB/cByJNarl mice [2]; [12]) of the same molecule?
Its PLT is 317.88 ± 60.27 10^3/μL.

What about the RBC (BALB/cByJNarl mice [2]; [12]) of the same molecule?
Its RBC is 7.86 ± 0.24 ×10^6/μL.

And the RDW (BALB/cByJNarl mice [2]; [12])?
The RDW was 29.26 ± 0.73 fL.

What about the WBC (BALB/cByJNarl mice [2]; [12]) of the same molecule?
The WBC was 3.29 ± 0.80 ×10^3/μL.

And the “levels of white blood cells (WBC), red blood cells (RBC), hemoglobin (HGB), hematocrit (HCT) and platelets (PLT), in words” value (BALB/cByJNarl mice [2]; Docetaxel alone compared with the Control group)?
The value was “considerable reduction”.

B1: FIP-fve: fungal immunomodulatory protein purified from F. velutipes, SEQ ID NO: 2 (protein)
chain: SATSLTFQLAYLVKKIDFDYTPNWGRGTPSSYIDNLTFPKVLTDKKYSYRVVVNGSDLGVESNFAVTPSGGQTINFLQYNKGYGVADTKTIQVFVVIPDTGNSEEYIIAEWKKT
modifications: Flammulina Velutipes
Which results are given for B1?
concentration sufficient to reach the maximum proliferation of human lymphocytes (human lymphocytes): 100 µg/mL; porosity of knee, distal femur and proximal tibia samples, in words (BALB/cByJNarl mice [1]; micro CT): considerably less porous; HGB and PLT levels, in words (BALB/cByJNarl mice [2]; reduction caused by Docetaxel): lessened the reduction
